According to ChEMBL document CHEMBL1201862, “PubChem BioAssay data set” (2004):
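Protocol summary: plate cells (96-well), add compound at 5 concentrations, incubate 48 h, interpolate endpoints linearly. Abbreviation: GI50, concentration required for 50% inhibition of growth.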 Calls of active or inactive are those of the source. Rule as the data show it: active = GI50 up to about 1.1 µM and inactive = higher.

Assays:
Assay in all cases: inhibition of tumour cell growth, NCI panel, 48 h
SK-MEL-28 = system: SK-MEL-28
SNB-75 = system: SNB-75
TK-10 = system: TK-10
HL-60 = system: HL-60
SR = system: SR
A549 = system: A549
NCI-H226 = system: NCI-H226
SF-268 = system: SF-268
HT-29 = system: HT-29
UACC-257 = system: UACC-257
M19-MEL = system: M19-MEL
SK-MEL-2 = system: SK-MEL-2
KM12 = system: KM12
RPMI-8226 = system: RPMI-8226
SK-OV-3 = system: SK-OV-3
UACC-62 = system: UACC-62

| SMILES | GI50 (SK-MEL-28) | GI50 (SNB-75) | GI50 (TK-10) | GI50 (HL-60) | GI50 (SR) | GI50 (A549) | GI50 (NCI-H226) | GI50 (SF-268) | GI50 (HT-29) | GI50 (UACC-257) | GI50 (M19-MEL) | GI50 (SK-MEL-2) | GI50 (KM12) | GI50 (RPMI-8226) | GI50 (SK-OV-3) | GI50 (UACC-62) |
| --- | --- | --- | --- | --- | --- | --- | --- | --- | --- | --- | --- | --- | --- | --- | --- | --- |
| CC(=O)Nc1ccc(C(=O)N2N=C(C)/C(=C\c3c(O)ccc4ccccc34)C2=O)cc1 | 57.8 µM (inactive) | > 100 µM (inactive) | 0.1 µM (active) | 57.4 µM (inactive) | 53.3 µM (inactive) | > 100 µM (inactive) | 39.5 µM (inactive) | 56 µM (inactive) | > 100 µM (inactive) | > 100 µM (inactive) | 45.6 µM (inactive) | 29.8 µM (inactive) | > 100 µM (inactive) | 56.8 µM (inactive) |  |  |
| O=S(=O)(N/N=C/c1ccc(/C=N/NS(=O)(=O)c2ccccc2)cc1)c1ccccc1 | 81.7 µM (inactive) | 70.3 µM (inactive) | 60.7 µM (inactive) | 23.2 µM (inactive) | 29 µM (inactive) | 77.6 µM (inactive) | > 100 µM (inactive) | > 100 µM (inactive) | 59.6 µM (inactive) | 53.2 µM (inactive) | 50.6 µM (inactive) | 43.5 µM (inactive) | 35.8 µM (inactive) | 45 µM (inactive) | > 100 µM (inactive) | 24.9 µM (inactive) |
| Cc1cccc(NC(=O)c2cc3cc(/N=N/c4ccccc4Cl)ccc3oc2=O)c1 | 35.4 µM (inactive) | 60.8 µM (inactive) | 36 µM (inactive) | > 100 µM (inactive) |  | 77.3 µM (inactive) | 13 µM (inactive) | 23.3 µM (inactive) | 38.2 µM (inactive) | 40.4 µM (inactive) | 32.1 µM (inactive) |  | 15.4 µM (inactive) | 19.9 µM (inactive) | 88.7 µM (inactive) | 16.3 µM (inactive) |
| O=S1(=O)OCCOS(=O)(=O)C1Cc1ccccc1 | > 100 µM (inactive) | 47.3 µM (inactive) | > 100 µM (inactive) | 21.4 µM (inactive) | 28.8 µM (inactive) | 44.3 µM (inactive) | 46.1 µM (inactive) | 39.1 µM (inactive) | 63.5 µM (inactive) | 53.6 µM (inactive) | 39.5 µM (inactive) |  | > 100 µM (inactive) | 18.7 µM (inactive) | > 100 µM (inactive) | 40.8 µM (inactive) |
| Cc1cc(C)c(C2=NO[C@@H]3C(=O)N(c4ccc(Cc5ccc(N6C(=O)[C@H]7C(c8c(C)cc(C)cc8C)=NO[C@H]7C6=O)cc5)cc4)C(=O)[C@H]23)c(C)c1 | > 100 µM (inactive) | > 100 µM (inactive) | > 100 µM (inactive) | > 100 µM (inactive) |  | > 100 µM (inactive) | > 100 µM (inactive) | > 100 µM (inactive) | > 100 µM (inactive) | 68.4 µM (inactive) | > 100 µM (inactive) | > 100 µM (inactive) | > 100 µM (inactive) | > 100 µM (inactive) | > 100 µM (inactive) | > 100 µM (inactive) |
| Cc1cc(C)n(-c2c(O)ccc(O)c2-n2nc(C)cc2C)n1 | > 100 µM (inactive) | > 100 µM (inactive) | > 100 µM (inactive) | > 100 µM (inactive) |  | > 100 µM (inactive) |  | > 100 µM (inactive) | > 100 µM (inactive) |  | 71.6 µM (inactive) | > 100 µM (inactive) | > 100 µM (inactive) | > 100 µM (inactive) | > 100 µM (inactive) | > 100 µM (inactive) |
| CC1=NN(C(=O)Cc2ccccc2)C(=O)/C1=C\c1ccccc1O | > 100 µM (inactive) |  | > 100 µM (inactive) | > 100 µM (inactive) |  | > 100 µM (inactive) | > 100 µM (inactive) | > 100 µM (inactive) | > 100 µM (inactive) | > 100 µM (inactive) | > 100 µM (inactive) | > 100 µM (inactive) | > 100 µM (inactive) | > 100 µM (inactive) | > 100 µM (inactive) | > 100 µM (inactive) |
| CN1CCCc2nc3ccccc3n2C1 | > 100 µM (inactive) | > 100 µM (inactive) | > 100 µM (inactive) | > 100 µM (inactive) |  | > 100 µM (inactive) | > 100 µM (inactive) | > 100 µM (inactive) | > 100 µM (inactive) | > 100 µM (inactive) | > 100 µM (inactive) | > 100 µM (inactive) | > 100 µM (inactive) | 23.7 µM (inactive) | > 100 µM (inactive) | > 100 µM (inactive) |
| CC1=NC=C(O)c2ccccc2O1 | > 100 µM (inactive) |  | > 100 µM (inactive) | > 100 µM (inactive) |  | > 100 µM (inactive) |  | > 100 µM (inactive) | > 100 µM (inactive) | > 100 µM (inactive) | > 100 µM (inactive) | > 100 µM (inactive) | > 100 µM (inactive) | > 100 µM (inactive) | > 100 µM (inactive) | > 100 µM (inactive) |
| N#C/C(=C\c1ccccc1Br)C(=O)c1ccccc1 | > 42.3 µM (inactive) |  | > 63.4 µM (inactive) | 1.28 µM (inactive) | 13.3 µM (inactive) | > 40.7 µM (inactive) | > 54.8 µM (inactive) | > 46 µM (inactive) | > 57.7 µM (inactive) | > 60 µM (inactive) | 33.4 µM (inactive) | > 65.5 µM (inactive) | > 54.3 µM (inactive) | 9.86 µM (inactive) | > 100 µM (inactive) | 29.5 µM (inactive) |
| CC1=CC(N2C(=O)C(C)=CC2O)NC1=O (stereo not given) | > 100 µM (inactive) | > 100 µM (inactive) | > 100 µM (inactive) | > 100 µM (inactive) | > 100 µM (inactive) | > 100 µM (inactive) | > 100 µM (inactive) | > 100 µM (inactive) | > 100 µM (inactive) | > 100 µM (inactive) | > 100 µM (inactive) | > 100 µM (inactive) | > 100 µM (inactive) |  |  |  |
| Cc1cc(N(CCC#N)CCC#N)ccc1/C=C1/CN(N2C(=O)/C(=C/c3ccc(N(CCC#N)CCC#N)cc3C)N=C2c2ccccc2)C(c2ccccc2)=N1 | > 100 µM (inactive) | 16.9 µM (inactive) | 26.5 µM (inactive) | > 100 µM (inactive) | > 100 µM (inactive) | > 100 µM (inactive) | > 100 µM (inactive) | > 100 µM (inactive) | > 100 µM (inactive) | > 100 µM (inactive) | > 100 µM (inactive) |  | > 100 µM (inactive) |  |  | > 100 µM (inactive) |
| O=c1/c(=C/c2ccccc2O)sc2nc3ccccc3n12 | 23.6 µM (inactive) | 84.9 µM (inactive) | > 100 µM (inactive) | 4.9 µM (inactive) | 27.4 µM (inactive) | 41.8 µM (inactive) | 52.1 µM (inactive) | 16.6 µM (inactive) | 43.2 µM (inactive) | 62.7 µM (inactive) | 41.2 µM (inactive) | 32.3 µM (inactive) |  | 21.2 µM (inactive) |  | 23.1 µM (inactive) |
| O=c1nc(/C=C/c2ccccc2Cl)cc2n1CCN2CCO | > 100 µM (inactive) | 26.3 µM (inactive) | > 100 µM (inactive) | > 100 µM (inactive) | 50.1 µM (inactive) |  | 97.9 µM (inactive) | 67.6 µM (inactive) | > 100 µM (inactive) |  | > 100 µM (inactive) | 72.3 µM (inactive) | 59.4 µM (inactive) | > 100 µM (inactive) | 43.8 µM (inactive) | > 100 µM (inactive) |
| CCC(=O)C(C)C(=O)C(=O)C(=O)OC (stereo not given) | > 100 µM (inactive) | > 100 µM (inactive) | > 100 µM (inactive) | > 44.4 µM (inactive) | > 100 µM (inactive) | > 100 µM (inactive) | > 100 µM (inactive) | > 100 µM (inactive) | 97.1 µM (inactive) | > 94.6 µM (inactive) | > 100 µM (inactive) | > 100 µM (inactive) | > 100 µM (inactive) | > 100 µM (inactive) | > 100 µM (inactive) | > 100 µM (inactive) |
| COc1nc2c(nc(N)n2C2OCC(O)C(O)C2O)c(=O)n1C (stereo not given) | > 100 µM (inactive) | > 100 µM (inactive) | > 100 µM (inactive) | > 100 µM (inactive) | > 100 µM (inactive) | > 100 µM (inactive) | > 100 µM (inactive) | > 100 µM (inactive) | > 100 µM (inactive) | > 100 µM (inactive) | > 100 µM (inactive) |  | > 100 µM (inactive) |  | > 100 µM (inactive) | > 100 µM (inactive) |
| Brc1ccc2ns[s+]c2c1 | 11.9 µM (inactive) | > 60 µM (inactive) | 5.28 µM (inactive) | 2.59 µM (inactive) | 4.36 µM (inactive) | 3.6 µM (inactive) | > 26.3 µM (inactive) | 2.58 µM (inactive) | 1.3 µM (inactive) | 14.9 µM (inactive) | 6.24 µM (inactive) | 6.75 µM (inactive) | 3.79 µM (inactive) | 4.71 µM (inactive) | > 100 µM (inactive) | 0.446 µM (active) |
| Cc1cc(CC(=O)NCCO)n(CCO)c(=O)c1 | > 100 µM (inactive) | 84.1 µM (inactive) | > 100 µM (inactive) | > 100 µM (inactive) | > 100 µM (inactive) | > 100 µM (inactive) |  | > 100 µM (inactive) | > 100 µM (inactive) | > 100 µM (inactive) | > 100 µM (inactive) |  | > 100 µM (inactive) |  |  | > 100 µM (inactive) |
| Cn1c(=O)nc2n(-c3ccc(F)c(F)c3)c3ccccc3nc-2c1=O |  | 23.3 µM (inactive) | 32.3 µM (inactive) | 10.6 µM (inactive) |  | 15.9 µM (inactive) | 30.3 µM (inactive) | 18.5 µM (inactive) | 4.03 µM (inactive) | 6.68 µM (inactive) | 1.76 µM (inactive) | 17 µM (inactive) | 20.8 µM (inactive) | 16.8 µM (inactive) | > 100 µM (inactive) | 2.4 µM (inactive) |
